Results from patent EP0560983B1, “New DNA sequence” (priority 1991, dated 1993).

Key:
Format in all cases: biochemical, Brevibacterium sterolicum ATCC 21387
cholesterol oxidase I [1] = target: T1, cholesterol oxidase I (Brevibacterium sterolicum, UniProt P22637); assay: Substrate specificity (relative activity on each substrate); conditions: activity of cholesterol oxidase I on each substrate; cholesterol = 100
T1 construct: host or cells: Brevibacterium sterolicum ATCC 21387 (origin of the enzyme; how it was prepared is not described)
T1 sequence (P22637 46-552): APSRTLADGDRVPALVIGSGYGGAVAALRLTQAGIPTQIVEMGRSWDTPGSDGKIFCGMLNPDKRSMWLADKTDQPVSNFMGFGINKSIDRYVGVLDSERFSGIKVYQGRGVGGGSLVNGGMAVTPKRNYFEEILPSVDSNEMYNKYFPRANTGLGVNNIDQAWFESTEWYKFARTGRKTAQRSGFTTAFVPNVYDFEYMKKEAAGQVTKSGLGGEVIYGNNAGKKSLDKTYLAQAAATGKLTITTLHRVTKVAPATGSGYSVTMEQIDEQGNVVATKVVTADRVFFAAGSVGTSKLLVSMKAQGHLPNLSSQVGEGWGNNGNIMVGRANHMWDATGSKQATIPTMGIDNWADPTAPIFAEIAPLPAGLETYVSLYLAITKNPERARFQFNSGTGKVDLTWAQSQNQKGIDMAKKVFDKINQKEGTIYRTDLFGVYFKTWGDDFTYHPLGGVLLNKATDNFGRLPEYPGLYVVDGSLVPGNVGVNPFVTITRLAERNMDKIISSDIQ
Procedure: (§1) The working pH range was determined by assaying the activity at each pH (phosphate buffer, Tris-HCl buffer, sodium acetate buffer) after the reaction at 37°C for 5 minutes. […] The pH range is determined by treating the enzyme at 50°C for 60 minutes at each pH (phosphate buffer, Tris-HCl buffer, sodium acetate buffer) and then assaying the residual activity. Method for determination of titer The amount of enzyme which catalyzes the reaction of decomposing 1 µmole of cholesterol at 37°C for one minute in the presence of oxygen is defined as one unit. The titer is determined as follows. With shaking, the enzyme acts on cholesterol and 4-aminoantipyrine and phenol are reacted with the formed hydrogen peroxide in the presence of peroxidase to form quinoneimine pigment. Absorption of the thus formed quinoneimine pigment in the visible region is measured to determine the amount of hydrogen peroxide generated. Thus, the titer of the enzyme is determined. Hereafter specific activity is defined as activity per 1 mg of protein (unit/mg). […] The mixture is agitated. After maintaining at 37°C for 3 mintues, 0.2 mℓ of an enzyme solution is added to the mixture. With shaking, the reaction is carried out at 37°C for 5 to 10 minutes. Then, absorbance is measured at 500 nm (OD 500 nm). • (c) Calculation of titer One unit of cholesterol oxidase II corresponds to an enzyme activity which decomposes 1 µmole of cholesterol at 37°C for 1 minute. […] Optimum temperature The optimum temperature at a pH of 6.6 for 3 minutes of the reaction time was examined. […] After heat treatment at pH of 7.0 for 60 minutes in 0.05 M phosphate buffer, the residual activity was determined. […] Reaction rates of the two enzymes were measured in various concentrations of cholesterol. […] Michealis' constant was determined from the Line weaver-Burk plot [refer to J. Am. […] Determination of the amino acid sequence and nucleotide sequence of cholesterol oxidase II Cholesterol oxidase II may be divided into 2 subunits, using reverse phase high performance liquid chromatography. Each subunit is digested with a protease, for example trypsin, and the digested subunit is further fractionated using high performance liquid chromatography, to obtain protease-digested fragments. The amino acid sequence of each digested fragment may be analyzed according to the conventional method, with the amino acid sequencer.

cholesterol oxidase II [2] = assay: as above; conditions: for Relative Activity (%): activity of cholesterol oxidase II on each substrate, cholesterol = 100; for Substrate specificity: whether cholesterol oxidase II acts on the substrate, in words
Procedure: as §1

cholesterol oxidase II [3] = assay: Influence of inhibitor on enzyme activity; conditions: for Relative Activity (%): cholesterol oxidase II, inhibitor at 1 mM, activity in the absence of the inhibitor = 100; for Inhibition: whether cholesterol oxidase II is inhibited, in words
Description: (§2) (3) Working pH for activity: The working pH of cholesterol oxidase II is in a range of 5.0 to 7.5, whereas that of cholesterol oxidase I is in a range of 6.0 to 7.5. […]
(§3) (d) Based on the amount of hydrogen peroxide formed, the amount of oxygen consumed and identification of the reaction product as described in (a), (b) and (c), it is recognized that the enzyme of the present invention acts on specifically cholesterol, that cholesterol was oxidized into hydrogen peroxide and 4-cholesten-3-one; that is, this enzyme has a cholesterol oxidase activity. [drawing 2] wherein R represents [drawing 3] • II. Working pH range and stable pH range The working pH for the activity is in a range of 5.0 to 7.5. The working pH range was determined by assaying the activity at each pH (phosphate buffer, Tris-HCl buffer, sodium acetate buffer) after the reaction at 37°C for 5 minutes. […] The pH range is determined by treating the enzyme at 50°C for 60 minutes at each pH (phosphate buffer, Tris-HCl buffer, sodium acetate buffer) and then assaying the residual activity. Method for determination of titer The amount of enzyme which catalyzes the reaction of decomposing 1 µmole of cholesterol at 37°C for one minute in the presence of oxygen is defined as one unit. The titer is determined as follows. With shaking, the enzyme acts on cholesterol and 4-aminoantipyrine and phenol are reacted with the formed hydrogen peroxide in the presence of peroxidase to form quinoneimine pigment. Absorption of the thus formed quinoneimine pigment in the visible region is measured to determine the amount of hydrogen peroxide generated. Thus, the titer of the enzyme is determined. Hereafter specific activity is defined as activity per 1 mg of protein (unit/mg). Furthermore, an amount of enzyme protein is determined by absorbance at 280 nm (1 mg/mℓ when absorbance is 1). • (a) Principle The enzyme activity is determined by reacting hydrogen peroxide generated by the enzyme with 4-aminoantipyrine and phenol in the presence of peroxidase and quantitatively determining the formed quinoneimine pigment. The reaction is shown by the following equations (1) and (2). [drawing 4] wherein R represents [drawing 5] [drawing 6] • (b) Procedure In a test tube, there are charged 1.0 ml of 3 mM cholesterol solution (which is prepared by adding 6 mℓ of 50 mM cholesterol ethanol solution to 94 mℓ of 1.05% Triton X-100 solution with stirring, heating the mixture for 10 minutes on a water bath, cooling the mixture in water, adding distilled water to the mixture until the total volume is 100 mℓ; and is not allowed to be used 30 minutes or longer after preparation), 0.3 mℓ of 50 mM sodium bilate solution, 0.3 mℓ of 0.5 mM potassium-sodium phosphate buffer (pH 6.6), 0.5 mℓ of 42 mM phenol, 0.5 mℓ of 2.4 mM 4-aminoantipyrine and 0.2 mℓ of 115 units/mℓ horseradish-derived peroxidase. The mixture is agitated. After maintaining at 37°C for 3 mintues, 0.2 mℓ of an enzyme solution is added to the mixture. With shaking, the reaction is carried out at 37°C for 5 to 10 minutes. Then, absorbance is measured at 500 nm (OD 500 nm). • (c) Calculation of titer One unit of cholesterol oxidase II corresponds to an enzyme activity which decomposes 1 µmole of cholesterol at 37°C for 1 minute. On the other hand, it is reported that absorption coefficient of 1 mM quinoneimine is 5.33 [Clinical Chemistry, 20, 470 (1974)]. […]

cholesterol oxidase I [4] = target: T1, cholesterol oxidase I; assay: Influence of inhibitor on enzyme activity; conditions: inhibitor at 1 mM, activity in the absence of the inhibitor = 100
Description: as §2, §3

Row | Compound | Relative Activity (%) (cholesterol oxidase I [1]) | Relative Activity (%) (cholesterol oxidase II [2]) | Substrate specificity (cholesterol oxidase II [2]) | Relative Activity (%) (cholesterol oxidase II [3]) | Inhibition (cholesterol oxidase II [3]) | Relative Activity (%) (cholesterol oxidase I [4])
1 | C[C@]12CC[C@@H]3c4ccc(O)cc4CC[C@H]3[C@@H]1CC[C@@H]2O [Estradiol] | 0 |  |  |  |  | 
2 | CCCCC/C=C\C/C=C\CCCCCCCC(=O)O[C@H]1CC[C@@]2(C)C(=CC[C@H]3[C@@H]4CC[C@H]([C@H](C)CCCC(C)C)[C@@]4(C)CC[C@@H]32)C1 [Cholesterol linoleate] | 0 | 0 | does not act on |  |  | 
3 | CC[C@H](CC[C@@H](C)[C@H]1CC[C@H]2[C@@H]3CC=C4C[C@@H](O)CC[C@]4(C)[C@H]3CC[C@]12C)C(C)C [β-Sitosterol] | 19.7 | 82.0 | acts on |  |  | 
4 | CC(=O)[C@H]1CC[C@H]2[C@@H]3CC=C4C[C@@H](O)CC[C@]4(C)[C@H]3CC[C@]12C [Pregnenolone] | 22.4 | 32.9 | acts on |  |  | 
5 | CC[C@H](/C=C/[C@@H](C)[C@H]1CC[C@H]2[C@@H]3CC=C4C[C@@H](O)CC[C@]4(C)[C@H]3CC[C@]12C)C(C)C [Stigmasterol] | 10.0 | 64.4 | acts on |  |  | 
6 | CC(C)CCC[C@@H](C)[C@H]1CC[C@H]2[C@@H]3CC=C4C[C@@H](O)CC[C@]4(C)[C@H]3CC[C@]12C [Cholesterol, 5-cholesten-3-β-ol] | 100 | 100 | acts on |  |  | 
7 | Oc1cccc2cccnc12 [o-Hydroxyquinoline] |  |  |  | 91.3 | inhibited | 
8 | O=S(=O)(O)c1cc[c]([Hg][Cl])cc1 [p-Chloromercury benzenesulfonate] |  |  |  | 87.0 | inhibited | 
9 | O=[N+]([O-])[O-].[Ag+] [AgNO3, silver nitrate] |  |  |  | 1.0 | inhibited | 0
10 | CC(C)=CCC[C@@H](C)[C@H]1CC[C@@]2(C)C3=C(CC[C@]12C)[C@@]1(C)CC[C@H](O)C(C)(C)[C@@H]1CC3 [Lanosterol] | 0 | 0 | does not act on |  |  | 
11 | C[C@]12CC[C@@H](O)C[C@@H]1CC[C@@H]1[C@@H]2CC[C@]2(C)C(=O)CC[C@@H]12 [Androsterone] | 0 | 0 | does not act on |  |  | 
12 | C[C@]12CC[C@H](O)CC1=CC[C@@H]1[C@@H]2CC[C@]2(C)C(=O)CC[C@@H]12 [Dehydroisoandrosterone] | 41.4 | 13.0 | acts on |  |  | 
13 | C=C1CC[C@H](O)C/C1=C/C=C1\CCC[C@]2(C)[C@@H]([C@H](C)CCCC(C)C)CC[C@@H]12 [Vitamin D3] | 0 | 0 | does not act on |  |  | 
